Assay results from PubChem BioAssay AID602267 (Broad Institute, 2012).
The source made the active and inactive calls.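 How the source made its calls: active means signal falls with dose and the fitted half-maximal concentration is at or below twice the top valid tested dose; inconclusive means flat curve with 30 to 70% inhibition, or poor fit; inactive means wrong direction, flat within 30%, or potency beyond limit.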

Target: Golgi-associated PDZ and coiled-coil motif-containing protein (Homo sapiens) (UniProt Q9HD26)
Experiment: blockers of CAL PDZ ligand groove binding – biochemical, fluorescence polarization, untagged CAL PDZ, cherry-pick, dose response (AID 602267)
Details: purified CAL PDZ, TMR-peptide fluorescence polarization, 1 h

Compound	AC50
O=C(O)CSc1cc(NS(=O)(=O)c2cccc([N+](=O)[O-])c2)c2ccccc2c1O	15.9 µM
CCc1ccc(S(=O)(=O)/N=C2/C=C(Sc3ncn[nH]3)C(=O)c3ccccc32)cc1	16.4 µM
COc1ccc(S(=O)(=O)Nc2cc(SCC(=O)O)c(O)c3ccccc23)cc1	34.2 µM
O=C(O)CSc1cc(NS(=O)(=O)c2ccc(Br)cc2)c2ccccc2c1O	29.7 µM

Same assay, conditions: purified CAL PDZ, TMR-peptide fluorescence polarization, 1 h; at 16 µM (top of the series)

Compound	activity change, negative = inhibition
O=c1[nH]c(CN2CC=C(c3ccccc3)CC2)nc2scc(-c3ccccc3)c12	inactive
O=C(OCC(=O)N1CCOCC1)c1ccc[nH]c1=O	inactive
COc1cccc(NC(=O)N2CCCCCC2)c1	inactive
CC1CCN(c2nc3c(c(=O)n(C)c(=O)n3C)n2CCSc2nc3ccccc3s2)CC1	inactive

Same assay, conditions: purified CAL PDZ, TMR-peptide fluorescence polarization, 1 h; at 50 µM (top of the series)

Compound	activity change, negative = inhibition
CCOC(=O)c1ccc(N=C2SC(C(=O)NC)CC(=O)N2Cc2ccc(F)cc2)cc1 (centres undefined)	inactive
Cc1nn(C)cc1CN(C)C(=O)c1nn2c(c1Br)NC(c1cccs1)CC2C(F)(F)F (centres undefined)	inactive
Cc1cccc(N(Cc2cc(=O)[nH]c3ccccc23)C(=O)C(C)C)c1	inactive
c1ccc(CNc2nc(NCc3ccccc3)c3ccccc3n2)cc1	inactive
O=C(O)CC1(CC(=O)Nc2ccc(Br)cc2)CCCCC1	inactive
Cc1cc(C)c(C(=O)N2CCC3(CC2)OCCO3)c(C)c1	inactive
COc1ccc(C2/C(=C(/O)c3ccc(C)cc3)C(=O)C(=O)N2C)c(OC)c1 (centres undefined)	inactive
O=C(NC1(C(F)(F)F)NC(=O)N(C2CCCCC2)C1=O)C1CC1 (centres undefined)	inactive
COCC(=O)Nc1ccc2nc3n(c(=O)c2c1)CCCCC3	inactive
Cc1cccc(C)c1NC(=S)NC(=O)c1ccc(Br)o1	inactive
C/C(CC(=O)Nc1ccc(C)c(Cl)c1)=N\NC(=O)Cc1cnc(N)s1	inactive
COc1ccc(C(=O)Nc2ccc(S(=O)(=O)N3CCCC3)cc2)cc1[N+](=O)[O-]	inactive
O=C(Nc1ccc([N+](=O)[O-])cc1)Nc1cnccn1	inactive
Cc1cccc(-n2nc(C)c3c2NC2=C(C(=O)CCC2)C3c2ccccn2)c1 (centres undefined)	inactive
CC1=C(C#N)C(Nc2ccc(Cl)cn2)(C(F)(F)F)C(=O)N1 (centres undefined)	inactive
O=C(COC(=O)c1cccnc1Cl)Nc1ccc2c(c1)OCO2	inactive
O=C(c1ccc(F)cc1Cl)N1CCC2(CC1)OCCO2	inactive
Cc1nn2c3ccccc3nc2c2ccccc12	inactive
Cc1ccc(C)c(N(CC(=O)NC(C)(C)C)C(=O)CCC(=O)Nc2nccs2)c1	inactive
Nc1ncnc2c1C(c1ccccc1)c1c(ccc3ccccc13)O2 (centres undefined)	inactive
O=C(c1c(Cl)cccc1Cl)N1CCCCCC1	inactive
C[C@H](NC(=O)c1ccccc1Cl)C(=O)NCc1cccs1	inactive

Compound	activity change, negative = inhibition
C=CCOc1ccc2ccccc2c1CNn1cn[nH]c1=S	inactive
CC(CN1CCCC1)OC(=O)C(c1ccccc1)c1ccccc1 (centres undefined)	inactive
CS(=O)(=O)c1ccc(Cl)c(NC(=O)COC(=O)c2c(Cl)cccc2Cl)c1	inactive
NC(=O)C1CCN(c2ncccc2[N+](=O)[O-])CC1	inactive
CCN(CC)CCC(=O)N1c2ccccc2CCc2ccc(NC(=O)OC(C)C)cc21	inactive
CS(=O)(=O)c1ccc2nc(NC(=O)CN3C(=O)C4CC=CCC4C3=O)sc2c1 (centres undefined)	inactive
O=C(OCC(=O)N1CCc2ccccc2C1)c1cccnc1Cl	inactive
O=c1c2cc3c(cc2[nH]c(=S)n1CCN1CCOCC1)OCO3	inactive
O=C(CCCn1c(=S)[nH]c2cc3c(cc2c1=O)OCO3)N1CCN(c2ccc(Cl)cc2)CC1	inactive
Cc1[nH]c2ccccc2c1C(=O)CSc1nc2ncc(Cl)cc2[nH]1	inactive
Cc1nc(Cl)sc1C(=O)Nc1cc(F)cc(F)c1	inactive
O=C(CSc1nc2c(sc3ccccc32)c(=O)n1Cc1ccccc1)NCC1CCCO1 (centres undefined)	inactive
Cc1cccc(Nc2nc(-c3ccc(F)cc3)cs2)n1	inactive
COc1ccc(OC)c(NC(=O)CS(=O)(=O)Cc2ccccc2)c1	inactive
Cn1nc(C(=O)N2CCCc3ccccc32)c2ccccc2c1=O	inactive
COC(=O)c1ccccc1NC(=O)n1cc(C)cn1	inactive
O=[N+]([O-])c1ccccc1/C=N/Nc1nc(N2CCCC2)nc(N2CCCC2)n1	inactive
COc1cc([N+](=O)[O-])ccc1NC(=O)CN1CCN(C(=O)c2ccco2)CC1	inactive
Cc1cc(SC2CCOC2=O)nc2ccccc12 (centres undefined)	inactive
CC1=C(C#N)C(=O)NC(=O)/C1=C\c1ccc(-c2cc(C)c(C)cc2[N+](=O)[O-])o1	inactive
COc1ccc(C(=O)N2CCCc3ccccc32)cc1Br	inactive
O=C(Oc1c(CN2CCOCC2)cc(Cl)c2cccnc12)c1ccc(F)cc1	inactive

Compound	activity change, negative = inhibition
O=C(COC(=O)c1ccc(Cl)nc1)Nc1ccc(N2CCCCC2)cc1	inactive
O=C(Cc1ccccc1)NN=C1CCCC1	inactive
COC(=O)c1cccc([N+](=O)[O-])c1CS(=O)(=O)c1ccc(C)cc1	inactive
O=C1CC(c2ccccc2)=C(c2ccccc2)C1	inactive
COc1ccc2ccccc2c1CN(C)Cc1ccccc1	inactive
CCN(CC)S(=O)(=O)c1ccc2nc(NC(=O)c3ccco3)sc2c1	inactive
COc1ccc(OC)c(NC(=O)c2ccc(OC3CSC3)cc2)c1	inactive
O=C1CN(C(=O)CC2C(=O)NCCN2Cc2ccccc2C(F)(F)F)CCN1 (centres undefined)	inactive
CCC(=O)c1cn(CC(=O)Nc2cccc(C)c2C)c2ccccc12	inactive
Cc1ccc2nc(CSc3nnc(-c4ccncc4)n3C)cc(=O)n2c1	inactive
COc1ccc(S(=O)(=O)N2CC(=O)Nc3ccccc32)cc1F	inactive
CCN(CCCn1c(=S)[nH]c2ccc(N3CCOCC3)cc2c1=O)c1ccccc1	inactive
CCOC(=O)NC(=O)COC(=O)CCCSc1nc2ccccc2s1	inactive
COc1ccc(C(CNC(=O)COc2ccccc2-c2ccccc2)N2CCOCC2)cc1 (centres undefined)	inactive
CCOc1ccc(C2=Nn3c(nnc3-c3ccco3)SC2)cc1	inactive
O=C(COc1ccccc1)N1CCCCCCC1	inactive
CCOC(=O)CCC(=O)Nc1ccc(S(=O)(=O)N2CCC(C)CC2)cc1	inactive
CN(C)C1(CNC(=O)C2CCC(=O)N(CCc3ccc(Cl)cc3)C2)CCCCC1 (centres undefined)	inactive
COC(=O)c1ccc(CNC(=O)COC(=O)c2cc(Cl)nc(Cl)c2)cc1	inactive
N#Cc1ccc(CC(=O)c2ccccc2)[nH]c1=O	inactive
COc1cc(NS(=O)(=O)c2ccc(NC(=S)Nc3ccccc3)cc2)nc(OC)n1	inactive
CS(=O)(=O)N(CC(=O)N1CCOCC1)c1cccc(F)c1	inactive

Compound	activity change, negative = inhibition
CCCCN1CC(O)=C(c2nc(-c3ccc(Cl)cc3)cs2)C1=N	inactive
OC(c1ccccc1)(c1ccccc1)c1nccc2ccccc12	inactive
O=C(Nc1cccc(F)c1)c1ccco1	inactive
Oc1ccc(C=Nc2cccc3ccccc23)c(O)c1	inactive
O=C(NCc1ccc(Cl)cc1)C(=O)NCC1OCCN1C(=O)c1ccc(Cl)cc1 (centres undefined)	inactive
O=C(CCC(=O)N1CCN(c2ccccc2F)CC1)N1CCN(c2ccccc2)CC1	inactive
CCOc1c(Cl)cc(CNc2nnnn2C)cc1OC	inactive
O=S(=O)(/N=C(/Nc1ccc(Cl)c(S(=O)(=O)N2CCOCC2)c1)c1ccc(F)cc1)c1ccccc1	inactive
O=C(c1cccc(Oc2c(Cl)cccc2[N+](=O)[O-])c1)N1CCOCC1	inactive
Cc1nn(C)c(C)c1S(=O)(=O)N1CCC(CO)(CC2CCCCO2)CC1 (centres undefined)	inactive
COc1cc(C(=O)ON=C2C(C)=CC(=O)C=C2C)cc(OC)c1OC	inactive
COc1ccc(/C=C2\N=C(c3ccc(C)cc3)OC2=O)cc1	inactive
COc1ccc(CSc2ncnc3sccc23)cc1F	inactive
O=C(O)c1cccc(Nc2ccc([N+](=O)[O-])cn2)c1	inactive
CCCOc1ccc(CC(=O)N/N=C\c2ccc(F)cc2)cc1	inactive
CC(=O)Nc1cc(NC(C)=O)cc(C(=O)OCC(=O)Nc2ccc(S(=O)(=O)NC3=NCCCCC3)cc2)c1	inactive
OCC1(CCOc2ccccc2)CCN(CCCn2cccn2)CC1	inactive
CN=c1scc(C)n1/N=C/c1cc(Br)c(O)c(Br)c1	inactive
COc1cc(S(=O)(=O)n2nc(C)cc2C)ccc1Cl	inactive
O=C(NCC1CCCO1)c1cn(-c2ccccc2)nc1-c1ccc(F)cc1 (centres undefined)	inactive
